Results published in patent publication US7531195B2, “Schisandrin B preparation” (priority 2005, dated 2009).

Assays:
H9c2 cells [1] = experiment: Cellular GSH level in H9c2 cells, time course, with or without xanthine/xanthine oxidase (X/XO) challenge; assay type: cell-based, rat; details: 6.25 μM
Protocol: (§1) H9c2 cells, a permanent cell line derived from cardiac myoblasts of rat embryo, have early been characterized as a suitable model of myocardial cells [Hescheler et al. 1991]. H9c2 cells were cultured as monolayers in Dulbecco's modified Eagle's medium (GIBCO BRL) supplemented with 10% (v/v) fetal bovine serum. The medium contained glucose (4.5 g/L) and glutamine (4.5 mM), supplemented with NaHCO3 (17 mM), penicillin (100 IU/ml), and streptomycin (100 μg/ml). Cells were grown under an atmosphere of 5% CO2 in air at 37° C. The medium was replaced by fresh medium every 2 or 3 days. A stock of cells was grown in a 75 cm culture flask and split before confluence at a subcultivation ratio of 1:10. Cells used for experiments were seeded at a density of 3.75×10^4 cells/well on a 12-well culture plate, and the cells were grown for 24 h to about 80% confluence prior to drug treatment.
(§2) Cultured H9c2 cells were treated with (−) Schisandrin B, (+) Schisandrin B or (±) Schisandrin B (dissolved in DMSO) at 6.25 μM (0.2% DMSO final concentration) for increasing periods of time. Control cells were given the vehicle (i.e. DMSO) only. Immediately following the drug or vehicle pretreatment, the cells were challenged with a mixture of xanthine (X) (0.1 mM) and xanthine oxidase (XO) (0.4 U/ml) for 4 h. The control cells were treated with the medium only. After the X/XO challenge, the medium was taken for the measurement of LDH activity, a biochemical index of cellular injury.
(§3) The cells were washed twice with 0.5 ml cold phosphate-buffered saline (PBS), An aliquot (200 μl) of 3% sulfonsalicyclic acid was then added, and the mixture was incubate at 4° C. for 10 min. After centrifuging at 300 g for 15 min at 4° C., the supernatant was used for GSH measurement by an enzymatic method of Griffith (1980).

H9c2 cells [2] = experiment: Xanthine/xanthine oxidase-induced cytotoxicity (LDH leakage) in H9c2 cells; assay type: cell-based, rat; details: X/XO challenge, 6.25 μM
Protocol: as §1, §2

H9c2 cells [3] = experiment: Menadione-induced toxicity (LDH) in H9c2 cells; assay type: cell-based, rat
Protocol: as §1
(§4) Cultured H9c2 cells were treated with (−) Schisandrin B, (+) Schisandrin B or (±) Schisandrin B (dissolved in DMSO) at 6.25 μM (0.2% DMSO final concentration) for 16 h. Control cells were given the vehicle (i.e. DMSO) only. Immediately following the drug or vehicle pretreatment, the cells were challenged with menadione (dissolved in ethanol) at 12.5 μM (0.2% ethanol final concentration) for 4 h. The control cells were treated with the medium containing 0.2% ethanol only. After the menadione challenge, the medium was taken for the measurement of LDH activity, an biochemical index of cell injury.

H9c2 cells [4] = experiment: Cellular GSH level in H9c2 cells with or without menadione challenge; assay type: cell-based, rat
Protocol: as §1, §4, §3

Hsp25 = Hsp25 expression in H9c2 cells (Western blot); assay type: cell-based, rat; details: 6.25 μM
Protocol: as §1
(§5) Cultured H9c2 cells were treated with (−) Schisandrin B, (+) Schisandrin B or (±) Schisandrin B (dissolved in DMSO) at 6.25 μM (0.2% DMSO final concentration) for increasing periods of time. Control cells were given the vehicle (i.e. DMSO) only.
(§6) Immediately following the drug treatment, the cells were washed twice with 0.5 ml cold PBS and treated with 100 μl lysis buffer containing 20 mM Tris HCl, 3 mM EGTA, 1% Triton X-100, 10% glycerol and 2 mM dithiothreitol, pH 7.5, with freshly added protease inhibitors (1 mM phenylmethylsulfonyl fluoride, 0.1 mM benzamide, 5 μg/ml leupeptin, 5 μg aproptinin and 5 μg/ml pepstain A). The mixture was incubated at 4° C. for 15 min with constant shaking. Then the cells were scraped off from the plate, and the extract was transferred to a microcentrifuge tube for centrifugation at 2,400 g for 3 min at 4° C. The resultant supernatant was used for Hsp analysis. Hsp25 and Hsp70 levels was estimated by Western blot analysis using specific antibodies (anti-Hsp25, catalog #SPA-801; anti-Hsp70, catalog #SPA-812) from StressGen (Vancouver, BC, Canada) following SDS-PAGE analysis cell lysates, using a separating gel of 10% acrylamide as described in Ip et. al. [2001]. Hsp25/27 and Hsp70 (human recombinant proteins from StressGen) and actin (bovine muscle from Sigma) were used as markers for reference. […] All immuno-blots were analyzed by densitometry, and the amounts (arbitrary units) of Hsp were normalized with reference to actin levels (arbitrary units) in the sample.

Hsp70 = Hsp70 expression in H9c2 cells (Western blot); assay type: cell-based, rat; details: 6.25 μM
Protocol: as §1, §5, §6

H9c2 cells [5] = experiment: Cytotoxicity test in H9c2 cells (trypan blue, LDH leakage, WST); assay type: cell-based; details: 100 μM; 24 h
Protocol: as §1
Cultured H9c2 cells were treated with (−) Schisandrin B or (+) Schisandrin B (dissolved in DMSO) at 6.25 μM (0.2% DMSO final concentration) at increasing concentrations or at increasing concentrations for 24 h. Control cells were given the vehicle (i.e. DMSO) only.
Cell viability was evaluated by trypan blue staining (dead cells) and LDH leakage as well as WST staining (viable cells).

[6] = X/XO challenge, 16 h post-dosing
[7] = 0 h post-dosing (unpretreated control)
[8] = MENADIONE 12.5 μM for 4 h, drug 6.25 μM for 16 h
[9] = NON-MENADIONE, 6.25 μM for 16 h

COc1cc2c(c(OC)c1OC)-c1c(cc3c(c1OC)OCO3)CC(C)C(C)C2 (single isomer, unassigned; (+)) [(+) Sch B, (+) Schisandrin B]
GSH Level (H9c2 cells [1]; NON-X/XO, 0 h post-dosing (unpretreated control)): 34.2 ± 2.41 nmol/mg protein | GSH Level (H9c2 cells [1]; NON-X/XO, 4 h post-dosing): 38.3 ± 1.48 nmol/mg protein | GSH Level (H9c2 cells [1]; NON-X/XO, 8 h post-dosing): 46.3 ± 0.85 nmol/mg protein | GSH Level (H9c2 cells [1]; NON-X/XO, 16 h post-dosing): 73.9 ± 1.38 nmol/mg protein | GSH Level, percent increase vs unpretreated control (0 h) (H9c2 cells [1]; NON-X/XO, 16 h post-dosing): (117%) | GSH Level (H9c2 cells [1]; NON-X/XO, 24 h post-dosing): 66.7 ± 1.83 nmol/mg protein | GSH Level (H9c2 cells [1]; NON-X/XO, 48 h post-dosing): 59.0 ± 2.94 nmol/mg protein | GSH Level (H9c2 cells [1]; X/XO challenge, 0 h post-dosing (unpretreated control)): 13.9 ± 1.68 nmol/mg protein | GSH Level (H9c2 cells [1]; X/XO challenge, 4 h post-dosing): 15.4 ± 0.55 nmol/mg protein | GSH Level (H9c2 cells [1]; X/XO challenge, 8 h post-dosing): 16.8 ± 0.85 nmol/mg protein | GSH Level (H9c2 cells [1]; [6]): 18.4 ± 0.33 nmol/mg protein | GSH Level, percent increase vs unpretreated control (0 h) (H9c2 cells [1]; [6]): (32%) | GSH Level (H9c2 cells [1]; X/XO challenge, 24 h post-dosing): 17.2 ± 0.36 nmol/mg protein | GSH Level (H9c2 cells [1]; X/XO challenge, 48 h post-dosing): 14.1 ± 0.53 nmol/mg protein | LDH Leakage (H9c2 cells [2]; [7]): 35.7 ± 0.24 U/L | LDH Leakage (H9c2 cells [2]; 4 h post-dosing): 31.3 ± 0.71 U/L | LDH Leakage (H9c2 cells [2]; 8 h post-dosing): 25.2 ± 0.45 U/L | LDH Leakage (H9c2 cells [2]; 16 h post-dosing): 19.4 ± 0.29 U/L | LDH Leakage, percent protection vs unpretreated control (0 h) (H9c2 cells [2]; 16 h post-dosing): (62%) | LDH Leakage (H9c2 cells [2]; 24 h post-dosing): 22.4 ± 1.07 U/L | LDH Leakage (H9c2 cells [2]; 48 h post-dosing): 33.5 ± 0.17 U/L | LDH (H9c2 cells [3]; [8]): 24.7 ± 0.56 U/ml | LDH, percent protection vs menadione control (H9c2 cells [3]; [8]): (30%) | LDH (H9c2 cells [3]; [9]): 13.5 ± 0.08 U/ml | GSH Level (H9c2 cells [4]; [8]): 24.5 ± 2.03 nmol/mg protein | GSH Level, percent increase vs menadione control (H9c2 cells [4]; [8]): (55%) | GSH Level (H9c2 cells [4]; [9]): 48.4 ± 0.60 nmol/mg protein | GSH Level, percent increase vs non-menadione control (H9c2 cells [4]; [9]): (41%) | Hsp 25 Level (Hsp25; [7]): 1722 ± 99 AU | Hsp 25 Level (Hsp25; 8 h post-dosing): 1832 ± 105 AU | Hsp 25 Level (Hsp25; 16 h post-dosing): 1498 ± 86 AU | Hsp 25 Level (Hsp25; 24 h post-dosing): 2168 ± 125 AU | Hsp 25 Level, percent increase vs unpretreated control (0 h) (Hsp25; 24 h post-dosing): (26%) | Hsp 25 Level (Hsp25; 48 h post-dosing): 1673 ± 97 AU | Hsp 70 Level (Hsp70; [7]): 465 ± 14.3 AU | Hsp 70 Level (Hsp70; 8 h post-dosing): 576 ± 20.3 AU | Hsp 70 Level (Hsp70; 16 h post-dosing): 657 ± 13.4 AU | Hsp 70 Level (Hsp70; 24 h post-dosing): 834 ± 48.1 AU | Hsp 70 Level, percent increase vs unpretreated control (0 h) (Hsp70; 24 h post-dosing): (79%) | Hsp 70 Level (Hsp70; 48 h post-dosing): 656 ± 37.8 AU | percentage of cell death (H9c2 cells [5]): 11%
